Data taken from patent US20210046109A1, “Suppressive Exosomes in Cancer and for Immunosuppression” (The Regents of the University of California, priority 2018, published 2021).
Peptide text beside a SMILES is read from it. * marks the point of attachment. Cbz = O=C(OCc1ccccc1)*

Columns and labels:
cancer cells = test: IFNγ treatment of cancer cells, PD-L1 in cellular and 100 k g fractions and vesicle number; type: cell-based
Source text: In vivo, tumor cells can mediate adaptive resistance by up-regulating PD-L1 in response to interferon-gamma (IFNγ) released by the cytotoxic T lymphocytes within the tumor bed. Therefore, it was explored whether, in addition to up-regulating cellular PD-L1, IFNγ may increase the secretion of PD-L1. Treatment of cancer cells with IFNγ led to an increase in PD-L1 in both the cellular and 100 k g fractions. […] Thus, similar to the cell surface membrane PD-L1, extracellular vesicular PD-L1 increased in response to IFNγ.

PC3 and SK-MEL-28 cells = test: Lysosome / proteasome inhibition, western analysis of PD-L1 protein levels; type: cell-based; settings: for PD-L1 protein levels: both lines
Description: Next, potential differences in protein degradation were evaluated. The two main pathways for protein degradation are the lysosome and the proteasome. The small molecule Bafalomycin A1 (BafA1) inhibits lysosomal activity by blocking the V-ATPase hydrogen pump and thus acidification of the lysosome. An increase in the protein LC3B, a known target of the lysosome, confirmed effectiveness of the small molecule on PC3 and SK-MEL-28 cells. However, levels of PD-L1 in both lines were unaltered, implying little turnover of PD-L1 by the lysosome in these cells. The small molecule MG132 suppresses proteasome activity by blocking the 26s proteasome complex and consequentially proteolysis. The proteasome recognizes ubiquitin side chains on its targets. An increase in the presence of ubiquitinated proteins confirmed the effectiveness of MG132 on the two cells lines.

Molecule | PD-L1 in both the cellular and 100 k g fractions (cancer cells) | number of vesicles secreted (cancer cells) | presence of ubiquitinated proteins (PC3 and SK-MEL-28 cells; PC3 and SK-MEL-28 cells) | PD-L1 protein levels (PC3 and SK-MEL-28 cells; PC3 and SK-MEL-28 cells) | PD-L1 levels (PC3 and SK-MEL-28 cells; SK-MEL-28 cells only, not PC3) | protein LC3B, known target of the lysosome (PC3 and SK-MEL-28 cells; PC3 and SK-MEL-28 cells)
interferon-gamma [IFNγ, interferon-gamma released by cytotoxic T lymphocytes] | increase | did not increase | – | – | – | –
CC(C)C[C@@H](C=O)NC(=O)[C@H](CC(C)C)NC(=O)[C@H](CC(C)C)NC(=O)OCc1ccccc1 [MG132] (Cbz-Leu-Leu-Leu-aldehyde) | – | – | increase | minimally affected | slightly up | –
CO/C1=C\C(C)=C\[C@@H](C)[C@@H](O)[C@@H](C)C/C(C)=C/C=C/[C@H](OC)[C@@H]([C@@H](C)[C@@H](O)[C@H](C)[C@@]2(O)C[C@@H](O)[C@H](C)[C@@H](C(C)C)O2)OC1=O [BafA1, Bafalomycin A1] | – | – | – | unaltered | – | increase
